Reference: PMC4884932, “Selective brain penetrable Nurr1 transactivator for treating Parkinson's disease” (Oncotarget, 2016)

How the values were obtained:
primary VMB neurons = test: Nurr1 downstream gene expression in VMB neurons (real time PCR); assay type: cell-based, mouse; conditions: HX531 100nM with 1nM IRX4204
Experimental: (§1) Ventral midbrain (VMB) from E13.5-14.5 C57BL/6 mouse embryos were dissected, triturated and plated on poly-D-lysine coated 12 well plates or glass coverslips with the serum-free chemically-defined Neurobasal medium, supplemented with 2% B27, 0.5mM L-glutamine, 50I.U./ml penicillin and 50μg/ml streptomycin (Gibco-BRL). […] For each time point, cells were washed once with phosphate buffered saline and fixed with 4% paraformaldehyde for TH immunofluorescent staining. For cell counting, 10 frames were randomly captured from each well using a Leica fluorescent microscope and a minimum of four replicates for each dose and each time point were analyzed for each experiment.
Total RNA from VMB neurons or rat substantia nigra were isolated using the RNeasy Mini Kit from Qiagen (Valencia, CA) and 1μg of total RNA was reverse transcribed using SuperScript III first-strand synthesis supermix for qRT-PCR from Invitrogen (Carlsbad, CA) according to the manufacturer's instruction. Quantitative RT-PCR was performed using Maxima SYBR Green master mix (Fermentas) in ABI Prism 7900HT in four replicates with primers amplifying the target genes. Expression level of actin was used as an internal control. Data were normalized using the 2^−ΔΔCt method. Levels of target gene mRNAs were expressed relative to those in vehicle control groups and plotted in GraphPad Prism.

[1] = tested on: tyrosine hydroxylase (TH)-positive DA neurons; test: DA neuron survival in primary ventral midbrain (VMB) culture; assay type: cell-based, mouse; conditions: co-treatment with IRX4204
Experimental: as §1

CN1c2ccc([N+](=O)[O-])cc2N=C(c2ccc(C(=O)O)cc2)c2cc3c(cc21)C(C)(C)CCC3(C)C [HX531, reference compound]
effect on IRX4204-mediated increased expression of DAT (primary VMB neurons): totally abolished | effect on IRX4204-mediated increased expression of DDC (primary VMB neurons): totally abolished | effect on IRX4204-promoted survival of TH-positive DA neurons [1]: completely blocked
